Assays:
Format in all cases: cell-based
[1] = system: MDA-MB-231 (breast cancer); assay: Antiproliferative activity (CCK-8 cell viability), MDA-MB-231; settings: Homo sapiens, 72 h; for inhibition at 3.3 µM: Compound concentration: 3.3 μM; for inhibition at 3.3 µM / inhibition at 10 µM: read-out: Antiproliferative activity in cancerous cells, MDA-MB-231 (inhibition of cell growth); for inhibition at 10 µM: Compound concentration: 10 μM; for inhibition at 30 µM: Compound concentration: 30 μM, read-out: Antiproliferative activity in cancerous cells, MDA-MB-231
Method in brief: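 MDA-MB-231 breast cancer cells, grown in DMEM with 10% FBS, were plated in 96-well plates at 2,000-5,000 cells/well. Once attached, they were exposed to compound and incubated at 37° C. for 72 h. Viability was then measured with CCK-8 (10 μL per well, 4 h at 37° C.) by absorbance at 450 nm, relative to DMSO vehicle wells.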

HepG2 (liver cancer) = assay: Antiproliferative activity (CCK-8 cell viability), HepG2; settings: Homo sapiens, 72 h; for inhibition at 3.3 µM: Compound concentration: 3.3 μM; for inhibition at 3.3 µM / inhibition at 10 µM: read-out: Antiproliferative activity in cancerous cells, HepG2 (inhibition of cell growth); for inhibition at 10 µM: Compound concentration: 10 μM
Method in brief: (§1)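 Cells grown in DMEM (HepG2, SW480), MEM (HeLa) or F-12K (A549), each with 10% FBS, then exposed to compound at 3.3, 10 or 30 μM for 72 h at 37 °C. CCK-8 absorbance at 450 nm; viability expressed as percent of DMSO-treated cells, graded as growth inhibition bands.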

SW480 (colon cancer) = assay: Antiproliferative activity (CCK-8 cell viability), SW480; settings: Homo sapiens, 72 h; for inhibition at 3.3 µM: Compound concentration: 3.3 μM; for inhibition at 3.3 µM / inhibition at 10 µM: read-out: Antiproliferative activity in cancerous cells, SW480 (inhibition of cell growth); for inhibition at 10 µM: Compound concentration: 10 μM
Method in brief: as §1

[2] = system: B16F10 (malignant melanoma); assay: Antiproliferative activity (CCK-8 cell viability), B16F10; settings: Mus musculus, 72 h; for inhibition at 3.3 µM: B16-F10, Compound concentration: 3.3 μM; for inhibition at 3.3 µM / inhibition at 10 µM: read-out: Antiproliferative activity in cancerous cells, B16F10 (inhibition of cell growth); for inhibition at 10 µM: B16-F10, Compound concentration: 10 μM
Method in brief: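 B16F10 melanoma cells grown in DMEM with 10% FBS were plated in 96-well plates at 2,000-5,000 cells/well. After attachment they were exposed to compound in medium for 72 h at 37° C. CCK-8 solution (10 μL) was then added, and after 4 h at 37° C absorbance was read at 450 nm.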

[3] = system: A431 (epidermoid carcinoma); assay: Antiproliferative activity (CCK-8 cell viability), A431; settings: Homo sapiens, 72 h; for inhibition at 3.3 µM: A-431, Compound concentration: 3.3 μM; for inhibition at 3.3 µM / inhibition at 10 µM: read-out: Antiproliferative activity in cancerous cells, A431 (inhibition of cell growth); for inhibition at 10 µM: A-431, Compound concentration: 10 μM
Method in brief: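 A431 epidermoid carcinoma cells grown in DMEM with 10% FBS were plated at 2,000-5,000 cells/well in 96-well plates. After attachment they were exposed to compound at 3.3 μM, 10 μM, or 30 μM for 72 h at 37° C. Viability was then assessed by CCK-8 against DMSO vehicle-treated wells.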

[4] = system: A549 (lung adenocarcinoma); assay: Antiproliferative activity (CCK-8 cell viability), A549; settings: Homo sapiens, 72 h; for inhibition at 3.3 µM: Compound concentration: 3.3 μM; for inhibition at 3.3 µM / inhibition at 10 µM: read-out: Antiproliferative activity in cancerous cells, A549 (inhibition of cell growth); for inhibition at 10 µM: Compound concentration: 10 μM
Method in brief: as §1

HeLa (cervical cancer) = assay: Antiproliferative activity (CCK-8 cell viability), HeLa; settings: Homo sapiens, 72 h, read-out: Antiproliferative activity in cancerous cells, HELA (inhibition of cell growth); for inhibition at 3.3 µM: Compound concentration: 3.3 μM; for inhibition at 10 µM: Compound concentration: 10 μM
Method in brief: as §1

Row | Compound | inhibition at 3.3 µM [1] [%] | inhibition at 10 µM [1] [%] | inhibition at 30 µM [1] [%] | inhibition at 3.3 µM (HepG2 (liver cancer)) [%] | inhibition at 10 µM (HepG2 (liver cancer)) [%] | inhibition at 30 µM (HepG2 (liver cancer); Compound concentration: 30 μM, read-out: Antiproliferative activity in cancerous cells, HepG2) [%] | inhibition at 3.3 µM (SW480 (colon cancer)) [%] | inhibition at 10 µM (SW480 (colon cancer)) [%] | inhibition at 30 µM (SW480 (colon cancer); Compound concentration: 30 μM, read-out: Antiproliferative activity in cancerous cells, SW480) [%] | inhibition at 3.3 µM [2] [%] | inhibition at 10 µM [2] [%] | inhibition at 30 µM ([2]; B16-F10, Compound concentration: 30 μM, read-out: Antiproliferative activity in cancerous cells, B16F10) [%] | inhibition at 3.3 µM [3] [%] | inhibition at 10 µM [3] [%] | inhibition at 30 µM ([3]; A-431, Compound concentration: 30 μM, read-out: Antiproliferative activity in cancerous cells, A431) [%] | inhibition at 3.3 µM [4] [%] | inhibition at 10 µM [4] [%] | inhibition at 30 µM ([4]; Compound concentration: 30 μM, read-out: Antiproliferative activity in cancerous cells, A549) [%] | inhibition at 3.3 µM (HeLa (cervical cancer)) [%] | inhibition at 10 µM (HeLa (cervical cancer)) [%]
1 | CC1=C(CC(=O)O)c2cc(Br)ccc2/C1=C\c1ccc(Oc2ccc(F)cc2)cc1 [C86, (Z)-2-(5-Bromo-1-(4-(4-fluorophenoxy)benzylidene)-2-methyl-1H-inden-3-yl)acetic acid] | < 30 | < 30 | < 30 | < 30 | < 30 | < 30 | < 30 | < 30 | < 30 | < 30 | 30 to 50 | 30 to 50 | 30 to 50 | 30 to 50 | 30 to 50 | < 30 | < 30 | < 30 | < 30 | < 30
2 | CC1=C(CC(=O)O)c2c(Cl)cc(Cl)cc2/C1=C\c1ccc(Oc2ccc(F)cc2)cc1 [C87, (Z)-2-(4,6-Dichloro-1-(4-(4-fluorophenoxy)benzylidene)-2-methyl-1H-inden-3-yl)acetic acid] | ≥ 50 | ≥ 50 | – | < 30 | ≥ 50 | – | < 30 | ≥ 50 | – | ≥ 50 | ≥ 50 | – | ≥ 50 | ≥ 50 | – | < 30 | ≥ 50 | – | < 30 | ≥ 50
3 | COc1ccc(Oc2cccc(/C=C3/C(C)=C(CC(=O)O)c4cc(Cl)ccc43)c2)cc1 [C92, (Z)-2-(5-Chloro-1-(3-(4-methoxyphenoxy)benzylidene)-2-methyl-1H-inden-3-yl)acetic acid] | < 30 | < 30 | – | ≥ 50 | ≥ 50 | – | ≥ 50 | ≥ 50 | – | < 30 | < 30 | – | ≥ 50 | ≥ 50 | – | < 30 | ≥ 50 | – | ≥ 50 | ≥ 50
4 | CC1=C(CC(=O)O)c2cc(Cl)ccc2/C1=C\c1cccc(Oc2ccc(Cl)cc2)c1 [C93, (Z)-2-(5-Chloro-1-(3-(4-chlorophenoxy)benzylidene)-2-methyl-1H-inden-3-yl)acetic acid] | < 30 | ≥ 50 | < 30 | ≥ 50 | ≥ 50 | – | < 30 | 30 to 50 | – | ≥ 50 | ≥ 50 | – | ≥ 50 | ≥ 50 | – | < 30 | ≥ 50 | – | < 30 | ≥ 50
5 | CC1=C(CC(=O)O)c2cc(Cl)ccc2/C1=C\c1cccc(Oc2ccc(C#N)cc2)c1 [C94, (Z)-2-(5-Chloro-1-(3-(4-cyanophenoxy)benzylidene)-2-methyl-1H-inden-3-yl)acetic acid] | < 30 | 30 to 50 | – | < 30 | ≥ 50 | – | < 30 | < 30 | – | 30 to 50 | 30 to 50 | – | ≥ 50 | ≥ 50 | – | < 30 | ≥ 50 | – | < 30 | ≥ 50

From patent US20260184663A1, “INDENE COMPOUNDS, PHARMACEUTICAL COMPOSITIONS THEREOF, AND THEIR THERAPEUTIC APPLICATIONS” (NucMito Pharmaceuticals co. Ltd., priority 2022, published 2026)
